Measured values taken from PubChem BioAssay (NCI).
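A five-concentration, 48-hour dose response in 96-well plates underlies each endpoint, interpolated linearly between surrounding concentrations. At the TGI there is no net growth.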

What was measured:
Test in all cases: DTP human tumour cell line panel, 48 h
HOP-92 NSCLC = system: HOP-92 NSCLC
OVCAR-5 ovarian = system: OVCAR-5 ovarian
HCT-116 colon = system: HCT-116 colon
RPMI-8226 leukemia = system: RPMI-8226 leukemia
U251 CNS = system: U251 CNS
HOP-62 NSCLC = system: HOP-62 NSCLC
SK-MEL-2 melanoma = system: SK-MEL-2 melanoma
SK-MEL-5 melanoma = system: SK-MEL-5 melanoma
T-47D breast = system: T-47D breast
MDA-MB-231 breast = system: MDA-MB-231 breast
OVCAR-8 ovarian = system: OVCAR-8 ovarian
NCI-H226 lung = system: NCI-H226 lung

SMILES	TGI (HOP-92 NSCLC) [µM]	TGI (OVCAR-5 ovarian) [µM]	TGI (HCT-116 colon) [µM]	TGI (RPMI-8226 leukemia) [µM]	TGI (U251 CNS) [µM]	TGI (HOP-62 NSCLC) [µM]	TGI (SK-MEL-2 melanoma) [µM]	TGI (SK-MEL-5 melanoma) [µM]	TGI (T-47D breast) [µM]	TGI (MDA-MB-231 breast) [µM]	TGI (OVCAR-8 ovarian) [µM]	TGI (NCI-H226 lung) [µM]
Nc1ccc2nc3ccc(N)cc3[n+](-c3ccccc3)c2c1	> 100	80.9	97.3	> 100	> 100	> 100	> 100	96.4	> 100	> 100	–	–
COc1cc(-c2c(C#N)c(N)c(C#N)c3c2COc2ccccc2-3)cc(OC)c1OC	38.6	> 100	> 100	> 100	34.4	19	> 77.6	> 100	> 100	40.2	97.6	59.4
COc1ccc(C2C(=O)C(Cl)N2Nc2nc(C)cc(=O)[nH]2)cc1OC (stereo not given)	81.7	> 100	> 100	55.9	> 100	> 100	> 100	> 100	–	–	> 100	–
CC(=O)Oc1ccc2c(C)cc(=O)oc2c1	> 100	> 100	> 100	> 100	> 100	> 100	> 100	> 100	> 100	> 100	> 100	> 100
Nc1ccc(C2NC(=O)Cc3c2ccc2ccccc32)cc1 (stereo not given)	> 100	> 100	> 100	> 100	> 100	> 100	> 100	> 100	> 100	–	> 100	> 100
NC(=O)NO	2330	1990	> 2500	2260	2330	2220	> 2450	2230	> 2500	> 1410	> 2460	2120
COc1cccc(Nc2nc(-c3cccs3)nc3ccc(Br)cc23)c1	> 100	> 100	> 100	> 100	> 100	57.9	> 100	> 100	> 100	> 100	> 100	> 100
COc1ccccc1N1C(Cl)C(=O)C1c1c[nH]c2ccccc12 (stereo not given)	> 100	> 100	> 100	> 100	> 100	> 100	> 100	> 100	–	–	> 100	–
O=C(O)C(O)Cc1ccccn1 (stereo not given)	> 100	> 100	–	> 100	> 100	> 100	> 100	> 100	> 100	> 100	> 100	> 100
N=C(N)C(N=Nc1ccccc1)C(N)=O (stereo not given)	> 100	> 100	> 100	> 100	> 100	> 100	> 100	> 100	> 100	> 100	> 100	> 100
